{
  "source": "ChEMBL document CHEMBL6182864",
  "about": "“Design, synthesis and biological evaluation of 3-amino-6-(2-hydroxyphenyl)pyridazin-4-aryl derivatives as SMARCA2/4 degraders” (Eur J Med Chem, 2025)",
  "key": {"MV4-11 [1]": {"tested_on": "MV4-11", "experiment": "Down regulation of TRAP1 mRNA expression in human MV4-11 cells at 100 to 1000 nM measured after 24 hrs by RT-qPCR analysis", "assay_type": "functional, cell-based", "details": "dose 100-1000 nM"}, "MV4-11 [2]": {"tested_on": "MV4-11", "experiment": "Cell cycle arrest in human MV4-11 cells assessed as increase in accumulation of cells at G0/G1 phase measured after 48 hrs by propidium iodide staining based flow cytometry", "assay_type": "functional", "details": "dose 100-1000 nM"}, "[3]": {"experiment": "Half life in SPF Sprague-Dawley rat at 10 mg/kg, po by LC-MS/MS analysis", "assay_type": "ADME, organism-based", "details": "in vivo"}, "MOLM-13 [4]": {"tested_on": "MOLM-13", "experiment": "Induction of apoptosis in human MOLM-13 cells assessed as necrotic cells at 100 nM measured after 72 hrs by Annexin-V-FITC/propidium iodide staining based flow cytometry (reference value: 0.28%)", "assay_type": "functional"}, "MOLM-13 [5]": {"tested_on": "MOLM-13", "experiment": "Antiproliferative activity against human MOLM-13 cells assessed as reduction in cell viability at 100 nM by MTT assay", "assay_type": "functional, cell-based", "details": "time 3-7 day"}, "MV4-11 [6]": {"tested_on": "MV4-11", "experiment": "Down regulation of TRAP1 mRNA expression in human MV4-11 cells at 11.1 to 33.3 nM measured after 24 hrs by RT-qPCR analysis", "assay_type": "functional, cell-based", "details": "dose 11.1-33.3 nM"}, "[7]": {"experiment": "Half life in SPF Sprague-Dawley rat at 1 mg/kg, iv by LC-MS/MS analysis", "assay_type": "ADME, organism-based", "details": "in vivo"}, "MOLM-13 [8]": {"tested_on": "MOLM-13", "experiment": "Induction of apoptosis in human MOLM-13 cells assessed as late apoptotic cells at 1000 nM measured after 72 hrs by Annexin-V-FITC/propidium iodide staining based flow cytometry (reference value: 3.87%)", "assay_type": "functional"}, "MOLM-13 [9]": {"tested_on": "MOLM-13", "experiment": "Induction of apoptosis in human MOLM-13 cells assessed as upregulation of cleaved caspase-3 expression measured after 72 hrs by Western blot analysis", "assay_type": "functional, cell-based", "details": "dose 100-1000 nM"}, "SUD4": {"tested_on": "SUD4", "experiment": "cells", "details": "Homo sapiens, SU-DHL-4, 72 h"}, "MOLM-13 [10]": {"tested_on": "MOLM-13", "experiment": "Induction of apoptosis in human MOLM-13 cells assessed as viable cells at 100 nM measured after 72 hrs by Annexin-V-FITC/propidium iodide staining based flow cytometry (reference value: 90.28%)", "assay_type": "functional", "details": "read-out: Activity"}, "MOLM-13 [11]": {"tested_on": "MOLM-13", "experiment": "Induction of apoptosis in human MOLM-13 cells assessed as early apoptotic cells at 300 nM measured after 72 hrs by Annexin-V-FITC/propidium iodide staining based flow cytometry (reference value: 5.57%)", "assay_type": "functional"}, "MV4-11 [12]": {"tested_on": "MV4-11", "experiment": "Induction of apoptosis in human MV4-11 cells assessed as late apoptotic cells at 300 nM measured after 72 hrs by Annexin-V-FITC/propidium iodide staining based flow cytometry (reference value: 1.09%)", "assay_type": "functional"}, "MOLM-13 [13]": {"tested_on": "MOLM-13", "experiment": "Induction of apoptosis in human MOLM-13 cells assessed as upregulation of PARP expression measured after 72 hrs by Western blot analysis", "assay_type": "functional, cell-based", "details": "dose 100-1000 nM"}, "MV4-11 [14]": {"tested_on": "MV4-11", "experiment": "Down regulation of […] mRNA expression in human MV4-11 cells at 11.1 to 33.3 nM measured after 24 hrs by RT-qPCR analysis", "assay_type": "functional, cell-based", "details": "dose 11.1-33.3 nM"}, "[15]": {"experiment": "Down regulation of SMARCA2 level in human MV4-11 cells at 100 nM measured after 6 hrs by mass spectrometric proteomic analysis relative to control", "assay_type": "functional"}, "MV4-11 [16]": {"tested_on": "MV4-11", "experiment": "Down regulation of CD44 mRNA expression in human MV4-11 cells at 11.1 to 1000 nM measured after 24 hrs by RT-qPCR analysis", "assay_type": "functional, cell-based", "details": "dose 11.1-1000 nM"}, "MV4-11 [17]": {"tested_on": "MV4-11", "experiment": "Effect on SMARCA2 mRNA expression in human MV4-11 cells at 1000 nM measured after 24 hrs by RT-qPCR analysis", "assay_type": "functional, cell-based"}, "[18]": {"experiment": "AUC (0 to t) in SPF Sprague-Dawley rat at 1 mg/kg, iv by LC-MS/MS analysis", "assay_type": "ADME, organism-based", "details": "in vivo"}, "[19]": {"experiment": "Down regulation of PBRM1 level in human MV4-11 cells at 100 nM measured after 6 hrs by mass spectrometric proteomic analysis relative to control", "assay_type": "functional"}, "MV4-11 [20]": {"tested_on": "MV4-11", "experiment": "Induction of apoptosis in human MV4-11 cells assessed as necrotic cells at 1000 nM measured after 72 hrs by Annexin-V-FITC/propidium iodide staining based flow cytometry (reference value: 0.1%)", "assay_type": "functional"}, "[21]": {"experiment": "Tmax in SPF Sprague-Dawley rat at 1 mg/kg, iv by LC-MS/MS analysis", "assay_type": "ADME, organism-based", "details": "in vivo"}, "A549": {"tested_on": "A549", "experiment": "cells", "details": "Homo sapiens, A549, 72 h"}, "MV4-11 [22]": {"tested_on": "MV4-11", "experiment": "Induction of apoptosis in human MV4-11 cells assessed as upregulation of cleaved caspase-3 expression measured after 72 hrs by Western blot analysis", "assay_type": "functional, cell-based", "details": "dose 100-1000 nM"}, "MOLM-13 [23]": {"tested_on": "MOLM-13", "experiment": "Induction of apoptosis in human MOLM-13 cells assessed as viable cells at 1000 nM measured after 72 hrs by Annexin-V-FITC/propidium iodide staining based flow cytometry (reference value: 90.28%)", "assay_type": "functional", "details": "read-out: Activity"}, "MOLM-13 [24]": {"tested_on": "MOLM-13", "experiment": "Induction of apoptosis in human MOLM-13 cells assessed as viable cells at 300 nM measured after 72 hrs by Annexin-V-FITC/propidium iodide staining based flow cytometry (reference value: 90.28%)", "assay_type": "functional", "details": "read-out: Activity"}, "MV4-11 [25]": {"tested_on": "MV4-11", "experiment": "Induction of apoptosis in human MV4-11 cells assessed as viable cells at 300 nM measured after 72 hrs by Annexin-V-FITC/propidium iodide staining based flow cytometry (reference value: 89.49%)", "assay_type": "functional", "details": "read-out: Activity"}, "MOLM-13 [26]": {"tested_on": "MOLM-13", "experiment": "Induction of apoptosis in human MOLM-13 cells assessed as necrotic cells at 300 nM measured after 72 hrs by Annexin-V-FITC/propidium iodide staining based flow cytometry (reference value: 0.28%)", "assay_type": "functional"}, "MOLM-13 [27]": {"tested_on": "MOLM-13", "experiment": "Induction of apoptosis in human MOLM-13 cells assessed as late apoptotic cells at 300 nM measured after 72 hrs by Annexin-V-FITC/propidium iodide staining based flow cytometry (reference value: 3.87%)", "assay_type": "functional"}},
  "note": "The source made the active and inactive calls. The calls are words filed in the database; no cut-off is given here.",
  "data": [
    {"smiles": "Cc1ncsc1-c1ccc([C@H](C)NC(=O)[C@@H]2C[C@@H](O)CN2C(=O)[C@@H](NC(=O)C2(c3ccc(-c4cc(-c5ccccc5O)nnc4N)cc3)CC2)C(C)(C)C)cc1", "values": [
      {"measurement": "Activity", "setting": "MV4-11 [1]", "result": "Active"},
      {"measurement": "Activity", "setting": "MV4-11 [2]", "result": "Dose-dependent-effect"},
      {"measurement": "half-life", "setting": "[3]", "result": 2.1, "unit": "h"},
      {"measurement": "Activity", "setting": "MOLM-13 [4]", "result": 0.19, "unit": "%"},
      {"measurement": "Activity", "setting": "MOLM-13 [5]", "result": "Time-dependent-effect; Complete Reduction Was Achieved On Day 7"},
      {"measurement": "Activity", "setting": "MV4-11 [6]", "result": "inactive"},
      {"measurement": "half-life", "setting": "[7]", "result": 1.91, "unit": "h"},
      {"measurement": "Activity", "setting": "MOLM-13 [8]", "result": 16.77, "unit": "%"},
      {"measurement": "Activity", "setting": "MOLM-13 [9]", "result": "Dose-dependent-effect"},
      {"measurement": "IC50", "setting": "SUD4", "result": 0.088, "unit": "µM"},
      {"measurement": "viability at 0.1 µM", "setting": "MOLM-13 [10]", "result": 54.1, "unit": "%"},
      {"measurement": "Activity", "setting": "MOLM-13 [11]", "result": 58.21, "unit": "%"},
      {"measurement": "Activity", "setting": "MV4-11 [12]", "result": 20.37, "unit": "%"},
      {"measurement": "Activity", "setting": "MOLM-13 [13]", "result": "Dose-dependent-effect"},
      {"measurement": "Activity", "setting": "MV4-11 [14]", "result": "inactive"},
      {"measurement": "Activity", "setting": "[15]", "result": ">=50%"},
      {"measurement": "Activity", "setting": "MV4-11 [16]", "result": "Active"},
      {"measurement": "Activity", "setting": "MV4-11 [17]", "result": "Active; Little Effect Mrna Level Observed"},
      {"measurement": "AUCt", "setting": "[18]", "result": 358, "unit": "ng·h/mL"},
      {"measurement": "Activity", "setting": "[19]", "result": ">=50%"},
      {"measurement": "Activity", "setting": "MV4-11 [20]", "result": 1.67, "unit": "%"},
      {"measurement": "Tmax", "setting": "[21]", "result": 1.98, "unit": "min"},
      {"measurement": "IC50", "setting": "A549", "result": 6.02, "unit": "µM"},
      {"measurement": "Activity", "setting": "MV4-11 [22]", "result": "Dose-dependent-effect"},
      {"measurement": "viability at 1 µM", "setting": "MOLM-13 [23]", "result": 25.7, "unit": "%"},
      {"measurement": "viability at 0.3 µM", "setting": "MOLM-13 [24]", "result": 27.1, "unit": "%"},
      {"measurement": "viability at 0.3 µM", "setting": "MV4-11 [25]", "result": 24.4, "unit": "%"},
      {"measurement": "Activity", "setting": "MOLM-13 [26]", "result": 0.31, "unit": "%"},
      {"measurement": "Activity", "setting": "MOLM-13 [27]", "result": 14.39, "unit": "%"}
    ]}
  ]
}
